Assay results taken from ChEMBL document CHEMBL1201862, “PubChem BioAssay data set” (2004).
Where “and” joins values, the source holds several entries; their conditions need not be identical. Equal entries are not always repeated. Calls of active or inactive are those of the source.

system: not listed separately; experiment: NIH3T3 cell viability loss – ATP luminescence, mouse fibroblasts, counter-screen, dose response (AID 2010); type: functional, cell-based; settings: not given;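 also: cells exposed to compound for about 90 hours before reading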

| SMILES | EC50 |
| --- | --- |
| O=C(Nn1c(-c2ccncc2)nc2ccccc2c1=O)c1ccc(Br)cc1 | > 60 µM (not active) |
| Cc1ccc(-n2cc(CN3CCC(O)(c4ccccn4)CC3)c(-c3ccc(F)cc3)n2)cc1 | 9.48 µM (active) |
| CCOc1ccc(C(=O)C[n+]2cccc3cc(C)ccc32)cc1 | > 30 µM (not active) |
| CC(C)(O)C#Cc1ccc(CN2CCCC(CO)(Cc3cccc(Cl)c3)C2)cc1 (stereo unspecified) | > 60 µM (not active) |
| O=S(=O)(c1ccc(Cl)cc1)N1CCCCC1c1cccnc1 (stereo unspecified) | > 60 µM (not active) |
| CCc1ccc(CN2CCCC(C(=O)c3sccc3C)C2)o1 (stereo unspecified) | 16.9 µM (active) |
| Cc1ccc(Nc2nc(-c3cccnc3)cs2)cc1Cl | > 60 µM (not active) |
| COc1ccc(-c2nc(CN3CCCCC3c3cccnc3)c(C)o2)c(F)c1 (stereo unspecified) | > 60 µM (inconclusive) |
| O=C(Nc1ccccc1)c1ccc(Nc2c([N+](=O)[O-])cc([N+](=O)[O-])c3ccccc23)cc1 | > 60 µM (not active) |
| Cc1ccc(OCCCCNC2CCCCC2)c(C)c1 | > 60 µM (not active) |
| COC(=O)c1ccc(NC(=S)N(Cc2cccnc2)Cc2ccco2)cc1 | > 30 µM (not active) |
| O=C(Cn1cnc([N+](=O)[O-])c1)Nc1cc(Oc2ccc(Cl)cc2Cl)cc([N+](=O)[O-])c1 | > 60 µM (not active) |

biological target: Cytochrome P450 2C19 (Homo sapiens, UniProt P33261); experiment: Cytochrome panel assay with activity outcomes. Panel member name: p450-cyp2c19 Compounds with AC50 equal or less than 10 uM are considered active; type: functional; settings: not given
Sequence (P33261 whole entry): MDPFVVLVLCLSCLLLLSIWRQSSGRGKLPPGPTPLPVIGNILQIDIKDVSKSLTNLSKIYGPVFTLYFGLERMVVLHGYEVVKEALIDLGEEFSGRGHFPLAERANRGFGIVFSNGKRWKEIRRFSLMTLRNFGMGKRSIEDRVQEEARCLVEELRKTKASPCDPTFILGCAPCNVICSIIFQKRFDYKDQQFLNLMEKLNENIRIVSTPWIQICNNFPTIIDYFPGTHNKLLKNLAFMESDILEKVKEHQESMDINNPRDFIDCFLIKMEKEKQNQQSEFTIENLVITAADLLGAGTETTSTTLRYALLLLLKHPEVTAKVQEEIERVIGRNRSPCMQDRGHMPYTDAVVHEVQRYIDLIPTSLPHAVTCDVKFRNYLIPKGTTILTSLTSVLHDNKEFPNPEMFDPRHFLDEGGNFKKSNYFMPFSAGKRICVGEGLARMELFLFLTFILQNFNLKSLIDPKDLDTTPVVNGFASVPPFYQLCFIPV

| AC50 | SMILES |
| --- | --- |
| inconclusive | CNc1cc(NS(=O)(=O)c2ccc(N)cc2)nc(NC)n1 |

same assay, conditions: read-out: AC50

| AC50 | SMILES |
| --- | --- |
| 28.2 µM (inconclusive) | O=C1N=C2SCCN2/C1=C\c1c(Cl)cccc1Cl |
| 20 µM (inconclusive) | Cc1cc(=O)[nH]c2ccccc12 |
| 5.01 µM (inconclusive) | CCOc1ccc(-n2c(=O)[nH]cc(C(=O)N3CCCc4ccccc43)c2=O)cc1 |
| 39.8 µM (inconclusive) | COC(=O)[C@@H]1C[C@H]1[C@@H](NC(=O)c1cc(C)nn1C)c1ccccc1 |

system: Streptococcus; experiment: GAS UMAA2166 growth inhibition – luminescence, BacTiterGlo, counter-screen for streptokinase expression inhibitor project, dose response (AID 1915); type: functional, organism-based; settings: not given;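 also: potency for reduction of bacterial viability or growth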

| SMILES | EC50 |
| --- | --- |
| Clc1ccccc1CN(Cc1ccccc1)c1[nH]cnc2ncnc1-2 | > 150 µM (not active) |
| COc1cc(C(=O)Nc2ccc(-c3nc4cc(C)ccc4o3)c(O)c2)cc(OC)c1OC | 1.85 µM (active) |
| COc1cccc(/C=C/C(=O)OCC(=O)Nc2nnc(-c3ccccc3)o2)c1 | 11.1 µM (active) |

biological target: T1, Cytochrome P450 1A2 (Homo sapiens, UniProt P05177); settings: not given;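 also: PubChem cytochrome P450 panel assay, CYP1A2 panel member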
T1 sequence (P05177 whole entry): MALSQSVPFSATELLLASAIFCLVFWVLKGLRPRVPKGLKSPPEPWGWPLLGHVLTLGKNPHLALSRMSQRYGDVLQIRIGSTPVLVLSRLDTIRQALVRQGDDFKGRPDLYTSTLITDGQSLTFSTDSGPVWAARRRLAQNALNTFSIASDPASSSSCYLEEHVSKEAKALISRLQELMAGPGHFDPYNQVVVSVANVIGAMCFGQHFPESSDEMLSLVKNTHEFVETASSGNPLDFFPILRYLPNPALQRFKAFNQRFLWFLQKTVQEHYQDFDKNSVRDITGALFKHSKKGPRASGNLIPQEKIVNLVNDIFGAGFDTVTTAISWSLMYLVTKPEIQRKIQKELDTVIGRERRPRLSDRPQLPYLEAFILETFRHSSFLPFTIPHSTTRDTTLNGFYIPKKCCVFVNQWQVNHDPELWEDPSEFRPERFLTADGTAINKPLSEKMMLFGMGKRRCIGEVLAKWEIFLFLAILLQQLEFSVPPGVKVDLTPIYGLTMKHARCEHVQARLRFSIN

| AC50 | SMILES |
| --- | --- |
| 28.2 µM (inconclusive) | CCOC(=O)c1ccc(Cl)c(NC(=O)c2ccc(-c3ccccc3)cc2)c1 |
| 6.31 µM (inconclusive) | COc1cccc(NC(=O)c2oc3ccccc3c2NC(=O)c2ccc3c(c2)OCO3)c1 |
| 12.6 µM (inconclusive) | C[C@@H](C(=O)NCCc1c[nH]c2ccccc12)[C@@H]1C[C@@]1(C)[C@@H](NC(=O)OCc1ccccc1)c1ccccc1 |
| 2 µM (inconclusive) | N=C(N)SCCSC(=N)N |
| 25.1 µM (inconclusive) | C[C@@H](C(=O)NCc1ccccn1)[C@H]1C[C@]1(C)[C@H](NC(=O)OCc1ccccc1)c1ccccc1 |
| 15.8 µM (inconclusive) | Cn1nnnc1SCc1ccccc1[N+](=O)[O-] |
| 31.6 µM (inconclusive) | CCN(c1ccccc1)c1cc(NC)[n+](C)c(C)n1 |

| SMILES | AC50 |
| --- | --- |
| CC1(C)Oc2ccc(C#N)cc2[C@H](N2CCCC2=O)[C@H]1O [(-)-CROMAKALIM] | 10 µM (inconclusive) and 20 µM (inconclusive) |

system: not listed separately; experiment: Trypanosoma cruzi growth suppression in host cells – NIH3T3 host cells, beta-gal luminescence, confirmation (AID 2044); type: functional, cell-based; settings: not given;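 also: intracellular parasites grown in NIH/3T3 mouse fibroblasts as host cells; luminescent beta-galactosidase reporter signal from transgenic T. cruzi replicating inside host cells; inhibitors lower the luminescence signal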

| SMILES | EC50 |
| --- | --- |
| O=C(Nn1c(-c2ccncc2)nc2ccccc2c1=O)c1ccc(Br)cc1 | 0.75 µM (active) |
| Cc1ccc(-n2cc(CN3CCC(O)(c4ccccn4)CC3)c(-c3ccc(F)cc3)n2)cc1 | 3.61 µM (active) |
| CCOc1ccc(C(=O)C[n+]2cccc3cc(C)ccc32)cc1 | 4.12 µM (active) |
| CC(C)(O)C#Cc1ccc(CN2CCCC(CO)(Cc3cccc(Cl)c3)C2)cc1 (stereo unspecified) | 0.455 µM (active) |
| O=S(=O)(c1ccc(Cl)cc1)N1CCCCC1c1cccnc1 (stereo unspecified) | 0.838 µM (active) |
| CCc1ccc(CN2CCCC(C(=O)c3sccc3C)C2)o1 (stereo unspecified) | 0.159 µM (active) |
| Cc1ccc(Nc2nc(-c3cccnc3)cs2)cc1Cl | 2.13 µM (active) |
| COc1ccc(-c2nc(CN3CCCCC3c3cccnc3)c(C)o2)c(F)c1 (stereo unspecified) | 1.45 µM (active) |
| O=C(Nc1ccccc1)c1ccc(Nc2c([N+](=O)[O-])cc([N+](=O)[O-])c3ccccc23)cc1 | 0.622 µM (active) |
| Cc1ccc(OCCCCNC2CCCCC2)c(C)c1 | 1.62 µM (active) |
| COC(=O)c1ccc(NC(=S)N(Cc2cccnc2)Cc2ccco2)cc1 | 0.534 µM (active) |
| O=C(Cn1cnc([N+](=O)[O-])c1)Nc1cc(Oc2ccc(Cl)cc2Cl)cc([N+](=O)[O-])c1 | 1.11 µM (active) |

system: Streptococcus sp. 'group A'; experiment: Streptococcus pyogenes SK(-)GAS viability under kanamycin – luminescence, BacTiterGlo, confirmation, counter-screen for streptokinase expression inhibitor project, dose response (AID 1900); type: functional, organism-based; settings: not given

| SMILES | EC50 |
| --- | --- |
| Clc1ccccc1CN(Cc1ccccc1)c1[nH]cnc2ncnc1-2 | 5.85 µM (active) |
| COc1cc(C(=O)Nc2ccc(-c3nc4cc(C)ccc4o3)c(O)c2)cc(OC)c1OC | 2.35 µM (active) |
| COc1cccc(/C=C/C(=O)OCC(=O)Nc2nnc(-c3ccccc3)o2)c1 | 6.11 µM (active) |

system: INS1; experiment: INS-1E survival protection against cytokine death – cell-based, luminescence, retest, dose response (AID 449756); type: functional; settings: Rattus norvegicus;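 also: cell death triggered by IL-1 beta plus TNF-alpha plus IFN-gamma mixture; protective hits raise ATP signal compared with cytokine alone wells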

| SMILES | AC50 |
| --- | --- |
| O=C(Nc1cccnc1)c1cccnc1 | 7.3 µM (active) |
| Fc1cc(F)c2nc(Nc3nc4c(F)cccc4s3)sc2c1 | 4.34 µM (active) |
| COc1cccc(-c2nc(-c3ccc(NC(=O)c4cccnc4)cc3)no2)c1 | 1.33 µM (active) |
